Source: patent publication US20160198747A1, “1H-PYRROLE-DICARBONYL-DERIVATIVES AND THEIR USE AS FLAVORING AGENTS” (IMAX DISCOVERY GMBH, priority 2013, published 2016)
Entries after “also recorded” stand apart in the source; their conditions may differ.

Experiments:
[1] = system: expert panel (8 panelists); assay: Sensory Test 1: expert panel, aqueous solution, sipping, holding 10 seconds, spitting out; format: in vivo, human
Procedure: An expert panel (8 panelists) evaluated the sensory properties of the compound of Formula (I) of Synthesis Example 1. The compound of Formula (I) of Synthesis Example 1 was first dissolved in ethanol and then added in the corresponding amount in water. The aqueous solution was evaluated by sipping, holding it in the mouth for 10 seconds, and then spitting it out. The description “accumulating” means that the flavor perception gradually (further) increases a few seconds after taking the solution into the mouth, often even some time after the solution has been spit out.

[2] = system: group of 16 trained panelists; assay: Sensory Test 2: trained panelists score a beef broth (bouillon) on eight descriptors; format: in vivo, human; details: scale 0 to 6, average of 16 panelists
Source text: A group of 16 trained panelists was instructed to evaluate the taste of a broth (bouillon) containing 0.5 wt. % of beef extract (Ref-beef) according to eight different descriptors in several repetitions. In a next step, these panelists were asked to rate said reference beef broth “Ref-beef” (presented at each testing session as a reference) against the following two different compositions consisting of “Ref-beef” and additionally a specific amount of the respective to be tested substance:
“Beef-I”=“Ref-beef”+10 ppm of the compound of Formula (I) of Synthesis Example 1,
“Beef-MSG”=“Ref-beef”+500 ppm (0.05 wt. %) of MSG
“Beef-MSG” was used as a positive umami standard.
The panelists judged the strength/intensity of the eight different descriptors in each case by awarding scores on a scale of from 0 (not corresponding to descriptor) to 6 (very strong). The results are present in the following table and FIGURE. All data are the averaged values for the group of 16 trained panelists for the respective scores for each descriptor.

[3] = Sensory Test 3: Sip and Spit evaluation in water, bouillons, meat products and snacks; format: in vivo, human
Procedure: An additional sensory analysis was performed for the compound of Formula (I) of Synthesis Example 1, by “Sip and Spit” for all evaluations and the key results are summarized in the following table.

[4] = system: bacterial strains of Salmonella typhimurium; assay: in vitro Ames plate incorporation test; format: cell-based
Source text: (§1) A particularly preferred compound of the invention is 4-ethyl 2-pyridin-2-ylmethyl-3,5-dimethyl-1H-pyrrole-2,4-dicarboxylate. […] It performs as a MSG replacer at the concentration of 4-20 ppm, depending on the application, whereas at the concentration of 0.5-10 ppm, depending on the application, it performs as a MSG enhancer. The compound is not mutagenic in a standard in vitro Ames plate incorporation test in bacterial strains of Salmonella typhimurium either in the absence or presence of metabolic activation.

solubility = format: physicochemical
[5] = stability to heat and to day-light; format: physicochemical
human sensory panel = human sensory panel (summary statement); format: in vivo
Source text: as §1

[6] = as described in US 2009/0311401; cited from earlier work
[7] = Beef-I = Ref-beef (broth, 0.5 wt. % beef extract) + 10 ppm compound
[8] = Beef-MSG = Ref-beef (broth, 0.5 wt. % beef extract) + 500 ppm (0.05 wt. %) MSG

CCOC(=O)c1c(C)[nH]c(C(=O)OCc2ccccn2)c1C [Synthesis Example 1, 3,5-dimethyl-1H-pyrrole-2,4-dicarboxylic acid, 4-ethyl 2-(2-pyridinylmethyl)ester]
Description of sensory effects ([1]; 3 ppm + 0.05 wt. % MSG in water): Strong umami, meaty, mouthfeel,; also recorded: mouth-watering | Description of sensory effects ([1]; 3 ppm in water): Strong umami, slightly metallic,; also recorded: some delay but lingering | Description of sensory effects ([1]; 30 ppm + 0.05 wt. % MSG in water): Umami, meaty, accumulating | Description of sensory effects ([1]; 30 ppm in water): Strong umami, long lasting | Long-lastingness score [2, 7]: 5.4 | Meaty score [2, 7]: 5.5 | Mouth-watering score [2, 7]: 4.9 | Mouthfeel score [2, 7]: 5.5 | Roasty score [2, 7]: 3.9 | Salty score [2, 7]: 2.7 | Sour score [2, 7]: 2.9 | Sweet score [2, 7]: 1.5 | MSG ENHANCEMENT Chicken Bouillon + 0.01% MSG vs. 0.04% MSG, sensory description ([3]; 0.5 ppm in chicken bouillon + 0.01% MSG): warm, meaty; also recorded: fatty, slightly salty, round,; also recorded: slight sweet, good impact, | Performance in Salted Water, sensory description ([3]; 3 ppm in salted water): clean, sweet umami, good | Performance in Water, sensory description ([3]; 3 ppm in water): clean, sweet umami, good | MSG REPLACEMENT Chicken Bouillon vs. 0.04% MSG, sensory description ([3]; 4 ppm in chicken bouillon): good, round, nice, clean | MSG ENHANCEMENT Sour Cream & Onion Chips + 0.05% MSG vs. 0.4% MSG, sensory description ([3]; 6 ppm in sour cream & onion chips + 0.05% MSG): umami, pleasant, good | MSG ENHANCEMENT Crackers + 0.03% MSG vs. 0.1% MSG, sensory description ([3]; 10 ppm in crackers + 0.03% MSG): umami, salivating, good | MSG ENHANCEMENT Marinated Chicken + 0.05% MSG vs. 0.3% MSG, sensory description ([3]; 10 ppm in marinated chicken + 0.05% MSG): bad, eggy, white meat,; also recorded: malty | MSG ENHANCEMENT Pork Burger + 0.03% MSG vs. 0.1% MSG, sensory description ([3]; 10 ppm in pork burger + 0.03% MSG): umami, sweet | MSG REPLACEMENT Cocido Ham vs. 0.1% MSG, sensory description ([3]; 20 ppm in cocido ham): stronger, ok, meaty, sweet, and good | MSG REPLACEMENT Marinated Chicken vs. 0.3% MSG, sensory description ([3]; 20 ppm in marinated chicken): meaty, umami balanced,; also recorded: seems salty | MSG REPLACEMENT Sour Cream & Onion Chips vs. 0.4% MSG, sensory description ([3]; 20 ppm in sour cream & onion chips): umami balanced, pleasant,; also recorded: lingering, less salty, good,; also recorded: full, salivating, sweet, more; also recorded: creamy | MSG ENHANCEMENT Chicken Bouillon + 0.01% MSG vs. 0.04% MSG, concentration ([3]; chicken bouillon + 0.01% MSG, vs. 0.04% MSG): 0.5 ppm | MSG REPLACEMENT Chicken Bouillon vs. 0.04% MSG, concentration ([3]; chicken bouillon, vs. 0.04% MSG): 4 ppm | MSG REPLACEMENT Cocido Ham vs. 0.1% MSG, concentration ([3]; cocido ham, vs. 0.1% MSG): 20 ppm | MSG ENHANCEMENT Crackers + 0.03% MSG vs. 0.1% MSG, concentration ([3]; crackers + 0.03% MSG, vs. 0.1% MSG): 10 ppm | concentration at which it performs as a MSG enhancer ([3]; depending on the application): 0.5-10 ppm | concentration at which it performs as a MSG replacer ([3]; depending on the application): 4-20 ppm | MSG ENHANCEMENT Marinated Chicken + 0.05% MSG vs. 0.3% MSG, concentration ([3]; marinated chicken + 0.05% MSG, vs. 0.3% MSG): 10 ppm | MSG REPLACEMENT Marinated Chicken vs. 0.3% MSG, concentration ([3]; marinated chicken, vs. 0.3% MSG): 20 ppm | MSG ENHANCEMENT Pork Burger + 0.03% MSG vs. 0.1% MSG, concentration ([3]; pork burger + 0.03% MSG, vs. 0.1% MSG): 10 ppm | MSG REPLACEMENT Pork Burger vs. 0.1% MSG, concentration ([3]; pork burger, vs. 0.1% MSG): 20 ppm | MSG ENHANCEMENT Sour Cream & Onion Chips + 0.05% MSG vs. 0.4% MSG, concentration ([3]; sour cream & onion chips + 0.05% MSG, vs. 0.4% MSG): 6 ppm | MSG REPLACEMENT Sour Cream & Onion Chips vs. 0.4% MSG, concentration ([3]; sour cream & onion chips, vs. 0.4% MSG): 20 ppm | mutagenicity, Ames plate incorporation test ([4]; absence of metabolic activation): not mutagenic | mutagenicity, Ames plate incorporation test ([4]; presence of metabolic activation): not mutagenic | solubility (solubility): good solubility | stability to day-light ([5]; day-light): stable | stability to heat ([5]; heat): stable | after-taste or off notes (human sensory panel): No after-taste or off notes are perceived | taste perception (human sensory panel; 3 ppm): very pleasant savory taste perception

N[C@@H](CCC(=O)O)C(=O)[O-].[Na+] [MSG, monosodium glutamate, reference compound]
Long-lastingness score [2, 8]: 4.3 | Meaty score [2, 8]: 5.3 | Mouth-watering score [2, 8]: 4.4 | Mouthfeel score [2, 8]: 4.8 | Roasty score [2, 8]: 3.8 | Salty score [2, 8]: 2.5 | Sour score [2, 8]: 2.9 | Sweet score [2, 8]: 2.1

CCNC(=O)O[C@H]1C[C@H](C)CC[C@H]1C(C)C (racemic) [racemate of (1S,2S,5R)-2-isopropyl-5-methylcyclohexyl ethyl carbamate, (1S,2S,5R)-2-isopropyl-5-methylcyclohexyl ethyl carbamate]
flavor profile [6]: cooling, umami, menthol note
